Results as given in patent publication US11793827B2, “Adenosine derivative and pharmaceutical composition comprising the same” (Brii Biosciences, Inc., priority 2021, dated 2023).

What was measured:
[1] = Plasma stability (human plasma); conditions: for Formation of EFdA at 30 min: human plasma; for half-life at 2 µM: human, pH 7.4
Experimental: The pooled frozen plasma was thawed in a water bath at 37° C. prior to experiment. Plasma was centrifuged at 4000 rpm for 5 min and the clots were removed if any. The pH will be adjusted to 7.4±0.1 if required.
Preparation of test compounds and positive control (propantheline bromide): 1 mM intermediate solution was prepared by diluting 10 μL of the stock solution with 90 μL MeOH; 1 mM intermediate of positive control Propantheline was prepared by diluting 10 μL of the stock solution with 90 μL ultrapure water. 100 μM dosing solution was prepared by diluting 20 μL of the intermediate solution (1 mM) with 180 μL MeOH. 98 μL of blank plasma was spiked with 2 μL of dosing solution (100 μM) to achieve 2 μM of the final concentration in duplicate and samples were incubated at 37° C. in a water bath. […] Centrifuged sample plates at 4,000 rpm for 10 min. An aliquot of supernatant (100 μL) was transferred from each well to another plates.

[2] = Liver S9 stability (human liver S9); format: in vitro ADME; conditions: for half-life at 1 µM: human liver S9, 37° C.; for Formation of EFdA at 30 min: human liver S9, 30 min
Experimental: Add 600 μL/well stop solution (cold in 4° C., including 100 ng/mL Tolbutamide/100 ng/mL Labetalol) to terminate the TO plate, then put it on ice. Dispense 840 μL/well S9 solution to 96-well plate as reservoir according to plate map. Then add 100 μL/well to every plate by Apricot. Incubate S9 solution and compound at 37° C. for about 10 min except NCF60 and TO. After adding S9 solution and 98μ LPB buffer to NCF60, incubate at 37° C. without pre-warming, start timer 1. After 60 min, add 600 μL/well stop solution to terminate the reaction. After pre-warming, dispense 760 μL/well cofactor solution to 96-well plate as reservoir according to plate map. Then add 98 μL/well to every plate by Apricot to start reaction. Incubate at 37° C., start timer 2, Add 600 μL/well stop solution (cold in 4° C., including 100 ng/mL Tolbutamide and Labetalol) to terminate the reaction. Samples are centrifuged at 4000 rpm for 20 min. While centrifuging, load 8× new 96-well plate with 300 μL HPLC water, then transfer 100 μL supernatant, mix with water for LC/MS/MS, transferred to Bioanalytical Services for LC-MS/MS analysis. Use equation of first order kinetics [NT]1/2 and CL: Equation of first order kinetics: [formula] [formula] [formula] [formula]

[3] = Plasma exposures following intramuscular administration of prodrugs to cynomolgus monkeys; conditions: single IM injection, 10 mg/kg

With `C#C[C@]1(COC(=O)OCCCC23CC4CC(CC(C4)C2)C3)O[C@@H](n2cnc3c(N)nc(F)nc32)C[C@@H]1O` [Compound 10, ((2R,3S,5R)-5-(6-amino-2-fluoro-9H-purin-9-yl)-2-ethynyl-3-hydroxy-tetrahydrofuran-2-yl)methyl 3-(1-adamantyl)propyl carbonate] the “Formation of EFdA at 30 min” value [1] was “Yes”, the half-life at 2 µM ([1]; pooled plasma) was less than 50 min and the half-life at 1 µM [2] was less than 50 min. For the same molecule, the “Formation of EFdA at 30 min” value [2] was “Yes” and the “Release of EFdA in vivo and prodrug level in the systemic circulation” value (“Release of EFdA” for short) [3] was “efficiently release EFdA in vivo with minimal to low levels of prodrug detected in the systemic circulation”.

For `C#C[C@]1(COC(=O)OCCC23CC4CC(CC(C4)C2)C3)O[C@@H](n2cnc3c(N)nc(F)nc32)C[C@@H]1O` [Compound 7, ((2R, 3S, 5R)-5-(6-amino-2-fluoro-9H-purin-9-yl)-2-ethynyl-3-hydroxy-tetrahydrofuran-2-yl)methyl 2-(1-adamantyl)ethyl carbonate], the “Formation of EFdA at 30 min” value [1] was “Yes”, the half-life at 2 µM ([1]; pooled plasma) was less than 50 min and the half-life at 1 µM [2] was less than 50 min. For the same molecule, the “Formation of EFdA at 30 min” value [2] was “Yes” and the “Release of EFdA” value [3] was “efficiently release EFdA in vivo with minimal to low levels of prodrug detected in the systemic circulation”.

With `C#C[C@]1(CO)O[C@@H](n2cnc3c(N)nc(F)nc32)C[C@@H]1OC(=O)OCCC12CC3CC(CC(C3)C1)C2` [Compound 8, ((2R,3S,5R)-5-(6-amino-2-fluoro-9H-purin-9-yl)-2-ethynyl-2-(hydroxymethyl)tetrahydrofuran-3-yl) 2-(1-adamantyl)ethyl carbonate] the “Formation of EFdA at 30 min” value [1] was “Yes”, the half-life at 2 µM ([1]; pooled plasma) was 50 to 200 min and the half-life at 1 µM [2] was less than 50 min. For the same molecule, the “Formation of EFdA at 30 min” value [2] was “Yes”.

In the case of `C#C[C@@]12COC(=O)OCC3CCCCC3COC(=O)OC1C[C@H](n1cnc3c(N)nc(F)nc31)O2` (stereo in doubt) [Compound 30, (6R,8R,10R)-8-(6-amino-2-fluoro-9H-purin-9-yl)-10-ethynyl-3,5,9,12,14-pentaoxatricyclo[14.4.0.06,10]icosane-4,13-dione], the “Formation of EFdA at 30 min” value [1] is reported as “No”, the half-life at 2 µM ([1]; pooled plasma) is reported as 50 to 200 min and the half-life at 1 µM [2] is reported as less than 50 min. For the same molecule, the “Formation of EFdA at 30 min” value [2] was “Yes”.

With `C#C[C@]1(COC(=O)OCC23CC4CC(CC(C4)C2)C3)O[C@@H](n2cnc3c(N)nc(F)nc32)C[C@@H]1OC(=O)OCC12CC3CC(CC(C3)C1)C2` [Compound 23, ((2R,3S,5R)-3-(1-adamantylmethoxycarbonyloxy)-5-(6-amino-2-fluoro-9H-purin-9-yl)-2-ethynyl-tetrahydrofuran-2-yl)methyl 1-adamantylmethyl carbonate] the “Formation of EFdA at 30 min” value [1] was “No”, the half-life at 2 µM ([1]; pooled plasma) was greater than 200 min and the half-life at 1 µM [2] was less than 50 min. The “Formation of EFdA at 30 min” value [2] was “Yes”.

For `C#C[C@]1(COC(=O)OCCCCC23CC4CC(CC(C4)C2)C3)O[C@@H](n2cnc3c(N)nc(F)nc32)C[C@@H]1O` [Compound 12, ((2R,3S,5R)-5-(6-amino-2-fluoro-9H-purin-9-yl)-2-ethynyl-3-hydroxy-tetrahydrofuran-2-yl)methyl 4-(1-adamantyl)butyl carbonate], the “Formation of EFdA at 30 min” value [1] was “Yes”, the half-life at 2 µM ([1]; pooled plasma) was less than 50 min and the half-life at 1 µM [2] was less than 50 min. For the same molecule, the “Formation of EFdA at 30 min” value [2] was “Yes” and the “Release of EFdA” value [3] was “efficiently release EFdA in vivo with minimal to low levels of prodrug detected in the systemic circulation”.

With `C#C[C@]1(COC(=O)CC23CC4CC(CC(C4)C2)C3)O[C@@H](n2cnc3c(N)nc(F)nc32)C[C@@H]1O` [Compound 1, ((2R,3S,5R)-5-(6-amino-2-fluoro-9H-purin-9-yl)-2-ethynyl-3-hydroxy-tetrahydrofuran-2-yl)methyl 2-(1-adamantyl) acetate] the “Formation of EFdA at 30 min” value [1] was “No”, the half-life at 2 µM ([1]; pooled plasma) was greater than 200 min and the half-life at 1 µM [2] was less than 50 min. For the same molecule, the “Formation of EFdA at 30 min” value [2] was “Yes”.

With `C#C[C@]1(COC(=O)OCCCC23CC4CC(CC(C4)C2)C3)O[C@@H](n2cnc3c(N)nc(F)nc32)C[C@@H]1OC(=O)OCC` [Compound 26, ((2R,3S,5R)-2-[3-(1-adamantyl)propoxycarbonyloxymethyl]-5-(6-amino-2-fluoro-9H-purin-9-yl)-2-ethynyl-tetrahydrofuran-3-yl) ethyl carbonate] the “Formation of EFdA at 30 min” value [1] was “Yes”, the half-life at 2 µM ([1]; plasma) was less than 50 min and the half-life at 1 µM [2] was less than 50 min. For the same molecule, the “Formation of EFdA at 30 min” value [2] was “Yes”.

With `C#C[C@@]12COC(=O)CCCCCOC(=O)O[C@H]1C[C@H](n1cnc3c(N)nc(F)nc31)O2` [Compound 17, (11aR,13R,14aS)-13-(6-amino-2-fluoro-9H-purin-9-yl)-11a-ethynyloctahydro-11H-furo[3,2-d][1,3,7]trioxacyclotridecine-2,9(4H)-dione] the “Formation of EFdA at 30 min” value [1] was “Yes”, the half-life at 2 µM ([1]; pooled plasma) was greater than 200 min and the half-life at 1 µM [2] was less than 50 min. For the same molecule, the “Formation of EFdA at 30 min” value [2] was “Yes”.

In the case of `C#C[C@]1(COC(=O)OCCC23CC4CC(CC(C4)C2)C3)O[C@@H](n2cnc3c(N)nc(F)nc32)C[C@@H]1OC(=O)OCC` [Compound 18, ((2R,3S,5R)-2-((((2-(1-adamantyl)ethoxy)carbonyl)oxy)methyl)-5-(6-amino-2-fluoro-9H-purin-9-yl)-2-ethynyltetrahydrofuran-3-yl) ethyl carbonate], the “Formation of EFdA at 30 min” value [1] is reported as “No”, the half-life at 2 µM ([1]; plasma) is reported as less than 50 min and the half-life at 1 µM [2] is reported as less than 50 min. The “Formation of EFdA at 30 min” value [2] was “Yes”.
